Experimental data as given in paper PMC12841663, “Antiprotozoal Potential of Cultivated Geranium macrorrhizum Against Giardia duodenalis, Trichomonas gallinae and Leishmania infantum” (International Journal of Molecular Sciences, 2026).
Converted amounts (≈) assume the structure as drawn. “Also recorded” adds a separate entry of the source.

Assays:
[1] = tested on: T. gallinae trophozoites; design: method as in PMID 36157195; conditions: cited from earlier work
[2] = tested on: G. duodenalis trophozoites; experiment: Anti-Giardia activity assay (MTT viability); format: cell-based; conditions: pure compounds
Protocol: Anti-Giardia (AG) activity assays were conducted on G. duodenalis trophozoites from the ATCC® 30957 strain (assemblage A), using flat-bottom microwell plates in quadruplicate. […] Incubation was carried out for 24 h at 37 °C. EOs and pure compounds were solved in DMSO (Sigma, Madrid, Spain) (<1% final concentration). […] Trophozoites/promastigotes viability was assessed using the modified MTT colorimetric assay, as described previously in the literature, with results further validated by microscopic examination. The plate was analyzed in a spectrophotometer at a wavelength of 570 nm. The percentage of antiparasitic activity was calculated as growth inhibition, using the following formula: % AT = 100 - [(Ap - Ab) ÷ (Ac - Ab)] × 100, where Ap is the absorbance of the tested product, Ab the absorbance of the blank and Ac the absorbance of the control wells (culture without treatment). […] Metronidazole (Acros Organics, Madrid, Spain) served as a reference compound for anti-Giardia activity and Anti-Trichomonas activity and amphotericin B for anti-Leishmania activity. Data was analyzed using STATGRAPHICS Centurion XIX ([…].com) (Statgraphics Technologies, Inc., The Plains, VA, USA). The mammalian cells and trophozoites viability were tested with each compound in a dose-response experiment to calculate their relative potency (CC50 or IC50 value, respectively).

[3] = tested on: T. gallinae trophozoites; experiment: Morphological evaluation by light microscopy (Diff-Quik), T. gallinae; format: cell-based, Trichomonas gallinae; conditions: germacrone 100 µg/mL, metronidazole 10 µg/mL; 0.5 and 48 h; control DMSO 1%
Excerpt: At each time point, quadruplicates were assigned per condition: growth control, germacrone, and the corresponding positive control (metronidazole or amphotericin B). For microscopy, quadruplicate wells corresponding to the same condition/time point were pooled prior to centrifugation to obtain sufficient biomass and a representative pellet for smear preparation. Pooled samples per condition/time point were centrifuged, resuspended in FBS and spread onto microscope slides. Once dried, samples were fixed and stained with Diff-Quik (Medion Diagnostic AG, […], Switzerland) following the manufacturer's instructions. Additionally, three wells per condition (triplicates) were used for the MTT assay, with absorbance measured by spectrophotometry after 48 h. Morphological changes were analyzed using light microscopy. Experiments were performed as independent biological replicates on different plates, and one Diff-Quik stained smear was obtained per condition and time point per biological replicate. For morphometric analysis, a total of 30 trophozoites per condition and time point were measured across the independent biological replicates and were selected by consecutive sampling during a predefined serpentine (zig-zag) scan across the preparation. Up to two eligible trophozoites per field (intact, well-focused and non-overlapping) were measured in sequential fields until n = 30 was reached, avoiding subjective selection of “representative” cells. Overlapping, partially visible, out-of-focus, edge-of-field, or debris-obscured trophozoites were excluded a priori. Trophozoites were photographed using a researcher's mobile phone mounted to the microscope ocular. Calibration was performed at the same magnification using a stage micrometre and applied in ImageJ v. 1.54d. One Diff-Quik stained smear was obtained per condition/time point per biological replicate Cell length, cell width, cell surface, nuclear length, nuclear width, axoneme (only Giardia), and length of axostyle (only T. gallinae) were measured with ImageJ software, and the data were recorded in an Excel database for statistical analysis. The Shapiro-Wilk test was used to assess the normality of the morphological variables. When data followed a normal distribution, Student's t-test was applied; otherwise, non-parametric tests, such as the Mann-Whitney U test, was used. Values of p < 0.05 were considered significant. For the morphological analysis, the mean, standard deviation, median, and interquartile range were calculated using SPSS version 20 (IBM Corp., Armonk, NY, USA).

[4] = tested on: G. duodenalis trophozoites; experiment: Morphological evaluation by light microscopy (Diff-Quik), G. duodenalis; format: cell-based, Giardia duodenalis; conditions: germacrone 100 µg/mL, metronidazole 100 µg/mL; 0.5 and 48 h; control DMSO 1%
Protocol: Each well contained 435 μL of culture medium and 15 μL of the test or control compounds at the above-mentioned concentrations. The chamber included: two wells for growth control (0.5 h, 48 h), two for germacrone (0.5 h, 48 h), and two for metronidazole (0.5 h, 48 h). Incubation was performed at 37 °C. At each time point, the medium was removed, wells were dried, fixed, and stained with Diff-Quik. Morphological changes were analyzed using light microscopy. Experiments were performed as independent biological replicates on different plates, and one Diff-Quik stained smear was obtained per condition and time point per biological replicate. For morphometric analysis, a total of 30 trophozoites per condition and time point were measured across the independent biological replicates and were selected by consecutive sampling during a predefined serpentine (zig-zag) scan across the preparation. Up to two eligible trophozoites per field (intact, well-focused and non-overlapping) were measured in sequential fields until n = 30 was reached, avoiding subjective selection of “representative” cells. Overlapping, partially visible, out-of-focus, edge-of-field, or debris-obscured trophozoites were excluded a priori. Trophozoites were photographed using a researcher's mobile phone mounted to the microscope ocular. Calibration was performed at the same magnification using a stage micrometre and applied in ImageJ v. 1.54d. One Diff-Quik stained smear was obtained per condition/time point per biological replicate Cell length, cell width, cell surface, nuclear length, nuclear width, axoneme (only Giardia), and length of axostyle (only T. gallinae) were measured with ImageJ software, and the data were recorded in an Excel database for statistical analysis. The Shapiro-Wilk test was used to assess the normality of the morphological variables. When data followed a normal distribution, Student's t-test was applied; otherwise, non-parametric tests, such as the Mann-Whitney U test, was used. Values of p < 0.05 were considered significant. For the morphological analysis, the mean, standard deviation, median, and interquartile range were calculated using SPSS version 20 (IBM Corp., Armonk, NY, USA).

[5] = Cytotoxicity of pure compounds on Vero cells (MTT); format: cell-based; conditions: African green monkey
Protocol: African green monkey kidney cells (Vero cells) were maintained in Dulbecco’s modified Eagle’s minimal essential medium (DMEM) (Thermo Fisher Scientific, Waltham, MA, USA) supplemented with 10% FBS and 1% Pen-Strep at 37 °C under a humidified atmosphere of 5% CO2/95% air.
Cells seeded in 96-well flat-bottom microplates with 100 μL medium per well (initial densities 10^4 cells per well) were exposed for 48 h to serial dilutions (100, 75, 50, 25, 10 and 1 µg/mL) of the tested compounds in DMSO (<1% final concentration). Cell viability was analyzed by the MTT colorimetric assay method, and the purple-colored formazan precipitate was dissolved with 100 μL of DMSO [23].
Data was analyzed using STATGRAPHICS Centurion XIX (https://www.statgraphics.com) (Statgraphics Technologies, Inc., The Plains, VA, USA). The mammalian cells and trophozoites viability were tested with each compound in a dose–response experiment to calculate their relative potency (CC50 or IC50 value, respectively). IC50 (μg/mL) expresses the dose of EOs, extracts or pure compounds needed to produce 50% mortality of trophozoites, while CC50 (μg/mL) expresses the dose of compounds necessary to produce 50% mortality of Vero cells.

Structure (SMILES): Cc1ncc([N+](=O)[O-])n1CCO [Met, metronidazole, reference compound]
- T. gallinae IC50 [1]: 1.0 (0.8–1.1) [23] µg/mL
- IC50 [2]: 4.4 µg/mL (≈ 25.7 µM)
- axostyle length vs control [3]: decreased at 0.5 h; also recorded: undetectable in most metronidazole-treated trophozoites by 48 h
- cell length vs control [3]: initial increase at 0.5 h, followed by a reduction at 48 h
- cell surface area vs control [3]: significant reduction only at 48 h
- nuclear length vs control [3]: decreased with metronidazole
- nuclear width vs control [3]: diminished at 0.5 h; also recorded: further decreased
- axoneme length vs control [4]: decreased at 0.5 h; also recorded: continued to decrease
- cell length vs control [4]: significant reductions at 30 min
- cell surface area vs control [4]: reduction in cell surface area relative to the control within 0.5 h
- cell width vs control [4]: decrease in cell width at 0.5 h
- nuclear length (left and right) vs control [4]: No effects
- nuclear width vs control [4]: reduction at 0.5 h, followed by an increase at 48 h
- CC50 at 48 h [5]: > 100 µg/mL
